This note sets out measurements from patent US11136336B2, “Thienopyrimidones” (Boehringer Ingelheim International GmbH, priority 2019, dated 2021).

A short description of data set [1]: Assay C: Hepatocyte clearance. Type of data set: in vitro ADME. Conditions: human hepatocyte suspension, 1 μM test compound, six hours. How it is done:
Assay C: Hepatocyte Clearance
The metabolic degradation of the test compound is assayed in a hepatocyte suspension. Hepatocytes (cryopreserved) are incubated in. Dulbecco's modified eagle medium (supplemented with 3.5 μg glucagon/500 mL, 2.5 mg insulin/500 mL and 3.75 mg/500 mL hydrocortison) containing 5% or 50% species serum.
Following a 30 min preincubation in an incubator (37° C., 10% CO2) 5 μl of test compound solution (80 μM; from 2 mM in DMSO stock solution diluted 1:25 with medium) are added into 395 μl hepatocyte suspension (cell density in the range 0.25-5 Mio cells/mL depending on the species, typically 1 Mio cells/mL; final concentration of test compound 1 μM, final DMSO concentration 0.05%).
The cells are incubated for six hours (incubator, orbital shaker) and samples (25 μl) are taken at 0, 0.5, 1, 2, 4 and 6 hours. Samples are transferred into acetonitrile and pelleted by centrifugation (5 min). The supernatant is transferred to a new 96-deepwell plate, evaporated under nitrogen and resuspended.
Decline of parent compound is analyzed by HPLC-MS/MS
CLint is calculated as follows CL_[…]=Dose/AUC=(C0/CD)/(AUD+clast/k)×1000/60. C0: initial concentration in the incubation [μM], CD: cell density of vital cells [10e6cells/mL], AUD: area under the data [μM×h], clast: concentration of last data point [μM], k: slope of the regression line for parent decline [h−1].
The calculated in vitro hepatic intrinsic clearance can be scaled up to the intrinsic in vivo hepatic Clearance and used to predict hepatic in vivo blood clearance (CL) by the use of a liver model (well stirred model).

Data set [2] can be described thus: Assay B: Microsomal clearance. Type of data set: in vitro ADME. As to conditions: pooled human liver microsomes, 1 mg/ml protein, 1 μM test compound, 37° C. The protocol: Assay B: Microsomal Clearance:
The metabolic degradation of the test compound is assayed at 37° C. with pooled liver microsomes. The final incubation volume of 100 μl per time point contains TRIS buffer pH 7.6 at RT (0.1 M), magnesium chloride (5 mM), microsomal protein (1 mg/ml) and the test compound at a final concentration of 1 μM.
Following a short preincubation period at 37° C., the reactions are initiated by addition of beta-nicotinamide adenine dinucleotide phosphate, reduced form (NADPH, 1 mM) and terminated by transferring an aliquot into solvent after different time points (0, 5, 15, 30, 60 min). Additionally, the NADPH-independent degradation is monitored in incubations without NADPH, terminated at the last time point. The [%] remaining test compound after NADPH independent incubation is reflected by the parameter c(control) (metabolic stability). The quenched incubations are pelleted by centrifugation (10000 g, 5 min).
An aliquot of the supernatant is assayed by LC-MS/MS for the amount of parent compound. The half-life (t1/2 INVITRO) is determined by the slope of the semilogarithmic plot of the concentration-time profile.
In general terms: Liver microsomes are vesicles of endoplasmic reticulum, rich in cytochrome P450 enzymes.

Data set [3] addresses human TRPA1 ion channel (Homo sapiens (Human), UniProt O75762). As to the kind of experiment: Assay A: TRPA1 cell assay (FLIPR, AITC-induced intracellular calcium). Type of data set: cell-based. As to conditions: HEK293 cells over-expressing human TRPA1; agonist AITC 10 μM; FLIPRtetra; read-out: hTRPA1 IC50. The protocol:
A human HEK293 cell line over-expressing the human TRPA1 ion channel (Perkin Elmer, Product No. AX-004-PCL) was used as a test system for compound efficacy and potency. Compound activity was determined by measuring the effect of compounds on intracellular calcium concentration induced by AITC (Allylisothiocyanat) agonism in a FLIPRtetra system (Molecular Devices).
The cells were obtained as frozen cells in cryo-vials and stored until use at −150° C. Cells were grown in culture medium (MEM/EBSS medium with 10% FCS and 0.4 mg/ML Geneticin). […] For sub-culturing cells were detached from flasks by Versene. At the day before the assay, cells were detached, washed twice with medium (MEM/EBSS medium with 10% FCS) and 20000 cells in 20p/well were seeded to Poly D-Lysin biocoated 384-well plates (black, clear bottom, Cat. 356697) from Corning. Plates were incubated for 24 hours at 37° C./5% CO2 before use in the assay.
The test compounds were dissolved in 100% DMSO at a concentration of 10 mM and in a first step diluted in DMSO to a concentration of 5 mM, followed by serial dilution steps in 100% DMSO. Dilution factor and number of dilution steps may vary according to needs. Typically 8 different concentrations by 1:5 dilutions were prepared, further intermediate dilutions (1:20) of the substances were carried out with HBSS/HEPES buffer (1×HEPES, Cat.14065 from Gibco, 20 mM HEPES, Cat. 83264 from SIGMA, 0.1% BSA Cat.11926 from Invitrogen, pH 7,4
At the assay day cells were washed 3× with assay puffer, 20 μL buffer remained in the wells after washing. 10 μL Ca6 kit (Cat.R8191 MolecularDevices) loading buffer in HBSS/HEPES was added to the cells and the plates were incubated with lid for 120 minutes at 37°/5% CO2. 10 μL of compound or controls in HBSS/HEPES buffer/5% DMSO from the intermediate dilution plate were carefully added to the wells. […] Finally 10 μL of the agonist AITC 50 μM dissolved in HBSS/HEPES buffer/0.05% DMSO (final concentration 10 μM) was added to the wells followed by an additional read on the FLIPRtetra device for 10 minutes. The area under the signal curve (AUC) after AITC addition was used for IC50/% inhibition calculations
Each assay microtiter plate contained wells with vehicle (1% DMSO) controls instead of compound as controls for AITC induced luminescence (100% CTL; high controls) and wells with vehicle controls without AITC as controls for non-specific changes in luminescence (0% CTL; low controls).
The analysis of the data was performed by the calculation of the area under signal curve of the individual wells. Based on this values the % value for the measurement of each substance concentration was calculated (AUC(sample)−AUC(low))*100/(AUC(high)−AUC(low)) using MegaLab software (in house development). The IC50 values were calculated from the % control values using MegaLab software. Calculation: [y=(ad)/(1+(x/c)^b)+d], a=low value, d=high value; x=conc M; c=IC50 M; b=hill; y=% ctrl
For orientation: Calcium flux is commonly read through the fluorescence of an indicator in the cells.

Chain of human TRPA1 ion channel (O75762 whole entry): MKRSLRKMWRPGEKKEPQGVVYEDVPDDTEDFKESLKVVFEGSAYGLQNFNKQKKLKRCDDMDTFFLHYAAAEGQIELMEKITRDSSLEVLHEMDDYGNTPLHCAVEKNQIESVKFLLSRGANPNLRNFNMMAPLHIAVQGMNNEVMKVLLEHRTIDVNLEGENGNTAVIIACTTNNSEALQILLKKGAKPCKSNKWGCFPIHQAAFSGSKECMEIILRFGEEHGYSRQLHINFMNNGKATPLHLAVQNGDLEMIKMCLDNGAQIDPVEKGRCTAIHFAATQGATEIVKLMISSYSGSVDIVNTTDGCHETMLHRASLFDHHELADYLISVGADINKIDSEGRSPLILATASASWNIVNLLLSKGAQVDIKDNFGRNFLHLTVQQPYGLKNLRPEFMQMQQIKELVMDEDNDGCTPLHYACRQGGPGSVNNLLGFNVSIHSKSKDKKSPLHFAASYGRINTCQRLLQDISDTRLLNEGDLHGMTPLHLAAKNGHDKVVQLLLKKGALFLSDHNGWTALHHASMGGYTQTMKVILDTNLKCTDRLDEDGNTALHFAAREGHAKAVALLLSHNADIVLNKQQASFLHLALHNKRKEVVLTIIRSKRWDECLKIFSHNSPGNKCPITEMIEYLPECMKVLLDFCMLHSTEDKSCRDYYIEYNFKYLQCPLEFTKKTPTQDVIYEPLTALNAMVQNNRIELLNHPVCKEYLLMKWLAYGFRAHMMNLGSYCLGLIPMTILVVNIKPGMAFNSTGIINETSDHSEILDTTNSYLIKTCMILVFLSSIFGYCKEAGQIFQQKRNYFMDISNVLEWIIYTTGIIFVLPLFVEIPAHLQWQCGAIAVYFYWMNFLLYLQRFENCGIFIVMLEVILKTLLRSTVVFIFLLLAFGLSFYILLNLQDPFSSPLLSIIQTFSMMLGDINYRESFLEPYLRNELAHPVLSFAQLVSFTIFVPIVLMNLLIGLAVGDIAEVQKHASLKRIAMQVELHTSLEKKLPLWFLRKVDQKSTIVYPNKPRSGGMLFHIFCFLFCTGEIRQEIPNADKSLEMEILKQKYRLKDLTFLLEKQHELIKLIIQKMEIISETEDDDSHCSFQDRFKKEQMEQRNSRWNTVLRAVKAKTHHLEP

With `Cc1c(C(N)=O)sc2ncn(Cc3nc(C[C@H](O)c4ccc(Cl)cc4)no3)c(=O)c12` [Example 1, 3-({3-[(2S)-2-(4-chlorophenyl)-2-hydroxyethyl]-1,2,4-oxadiazol-5-yl}methyl)-5-methyl-4-oxo-3H,4H-thieno[2,3-d]pyrimidine-6-carboxamide], the “human Hepatocytes [% Qh]” value in data set [1] amounted to 25 % Qh. The “human LM [% Qh]” value in data set [2] is 29 % Qh. Besides, the IC50 (usually the midpoint of a concentration-inhibition curve) in data set [3] worked out at 0.013 µM.
The corresponding values for `Cc1ccc([C@@H](O)Cc2noc(Cn3cnc4sc(C(N)=O)c(C)c4c3=O)n2)cc1` [Example 2] are 29 % Qh, <23 % Qh and 0.02 µM.
The like results for `Cc1c(C(N)=O)sc2ncn(Cc3nc(C[C@H](O)c4cc5ccccc5o4)no3)c(=O)c12` [Example 3] were, in that order, 36 % Qh, <23 % Qh and 0.019 µM.
Turning to `Cc1c(C(N)=O)sc2ncn(Cc3nc(C[C@H](O)c4ccc(F)cc4)no3)c(=O)c12` [Example 4], the “human Hepatocytes [% Qh]” value in data set [1] is 29 % Qh. Also, the “human LM [% Qh]” value in data set [2] is on record as <23 % Qh. Moreover, the IC50 in data set [3] came out at 0.033 µM.
On to `Cc1c(C(N)=O)sc2ncn(Cc3nc(C[C@H](O)c4ccc(F)c(F)c4)no3)c(=O)c12` [Example 5], for which the “human Hepatocytes [% Qh]” value in data set [1] is given as 37 % Qh. In addition, the “human LM [% Qh]” value in data set [2] was <23 % Qh. Moreover, the IC50 in data set [3] is 0.048 µM.
As for `Cc1c(C(N)=O)sc2ncn(Cc3nc(C[C@H](O)c4cc(F)cc(F)c4)no3)c(=O)c12` [Example 6], in data set [1], the “human Hepatocytes [% Qh]” value is recorded as 23 % Qh. The “human LM [% Qh]” value in data set [2] is given as <23 % Qh. In addition, the IC50 in data set [3] came to 0.048 µM.
The like results for `Cc1c(C(N)=O)sc2ncn(Cc3nc(C[C@H](O)c4ccc5c(c4)OC(F)(F)O5)no3)c(=O)c12` [Example 7] were, in that order, 39 % Qh, 23 % Qh and 0.034 µM.
The corresponding values for `Cc1c(C(N)=O)sc2ncn(Cc3nc(C[C@H](O)c4ccc5c(c4)OCO5)no3)c(=O)c12` [Example 8] are 24 % Qh, <23 % Qh and 0.056 µM.
The corresponding values for `CNC(=O)c1sc2ncn(Cc3nc(C[C@H](O)c4ccc5c(c4)OCO5)no3)c(=O)c2c1C` [Example 9] are 24 % Qh, 29 % Qh and 0.078 µM.
Take `CNC(=O)c1sc2ncn(Cc3nc(C[C@H](O)c4ccc(F)cc4)no3)c(=O)c2c1C` [Example 10]: the “human Hepatocytes [% Qh]” value in data set [1] is 25 % Qh. The “human LM [% Qh]” value in data set [2] is given as <23 % Qh.
In the case of `CNC(=O)c1sc2ncn(Cc3nc(C[C@H](O)c4ccc(Cl)cc4)no3)c(=O)c2c1C` [Example 11], in data set [1], the “human Hepatocytes [% Qh]” value was 29 % Qh. In data set [2], the “human LM [% Qh]” value is <23 % Qh. In addition, in data set [3], the IC50 is 0.01 µM.
Regarding `Cc1c(C(=O)NCC(F)F)sc2ncn(Cc3nc(C[C@H](O)c4ccc(Cl)cc4)no3)c(=O)c12` [Example 12], the “human Hepatocytes [% Qh]” value in data set [1] was 36 % Qh. The “human LM [% Qh]” value in data set [2] is on record as 24 % Qh. For the same compound, the IC50 in data set [3] is 0.015 µM.
The corresponding values for `Cc1c(C(=O)NCC(C)(C)O)sc2ncn(Cc3nc(C[C@H](O)c4ccc(Cl)cc4)no3)c(=O)c12` [Example 13] are 18 % Qh, <23 % Qh and 0.037 µM.
The like results for `CNC(=O)c1sc2ncn(Cc3nc(C[C@H](O)c4ccc(F)c(F)c4)no3)c(=O)c2c1C` [Example 14] were, in that order, 24 % Qh, <23 % Qh and 0.033 µM.
The like results for `O=C1NCCc2c1sc1ncn(Cc3nc(C[C@H](O)c4ccc(Cl)cc4)no3)c(=O)c21` [Example 15] were, in that order, 31 % Qh, <23 % Qh and 0.009 µM.
With `NC(=O)c1sc2ncn(Cc3nc(C[C@H](O)c4ccc(Cl)cc4)no3)c(=O)c2c1Cl` [Example 16], the “human Hepatocytes [% Qh]” value in data set [1] is 39 % Qh. Moreover, the “human LM [% Qh]” value in data set [2] is recorded as <23 % Qh. In addition, the IC50 in data set [3] was found to be 0.016 µM.
